Reference: US6924314B2, “Compounds for the treatment of metabolic disorders” (Wellstat Therapeutics Corporation, priority 2001, dated 2005)

Experiments:
[1] = test system: mice with severe insulin-dependent diabetes; test: Mortality in severe insulin-dependent diabetes (multiple high doses of STZ); format: in vivo; details: STZ 75 mg/kg i.p. x5 balb/C mice, 30 mg/kg/day oral, after three weeks of daily treatment
Description: Female balb/C mice (19 wks of age at start of experiment) were challenged with multiple high doses of STZ (75 mg/kg i.p. on 5 consecutive days). Animals were then divided in two groups (20 mice/group) matched for severity of diabetes. Four days after the last dose of STZ, treatments were initiated. One group received Vehicle (0.4 ml of 0.75% HPMC, p.o.), and the other group received oral COMPOUND AA (30 mg/kg/day). After three weeks of daily treatment, cumulative mortality in the Vehicle Control group was 19/20 mice. In contrast, only 5/20 of the COMPOUND AA mice died during this time.

[2] = test system: ob/ob obese diabetic mice; test: Acute hypoglycemic effect in ob/ob obese diabetic mice: Experiment 1; format: in vivo; details: single oral dose by gavage, 6 hours
Description: Male ob/ob diabetic mice were randomized into groups of five animals each. Body weights were 50-55 g and blood glucose was approximately 300 mg/dL in the fed state. A single oral dose of a test substance suspended in 0.5% carboxymethylcellulose vehicle was administered by gavage. Blood glucose was measured in blood droplets obtained by nicking a tail vein with a razor using glucometer test strips and a Glucometer Elite XL device (Bayer) at 0, 0.5, 2, 4, 6 and 18 hours after the initial dosing. A 10% reduction in blood glucose versus oral vehicle is considered a positive screening result. Blood glucose reductions were generally maximal at 6 hours after drug administration.

[3] = test system: streptozotocin diabetic mice; test: Serum chemistries and body weights in streptozotocin diabetic mice treated with oral Compound AH for 14 weeks; format: in vivo, Balb/C mice
Description: Streptozotocin (STZ) is a toxin that selectively destroys insulin-producing pancreatic beta cells, and is widely used to induce insulin-dependent diabetes in experimental animals.
Female Balb/C mice (8 weeks old; 18-20 grams body weight) were treated with streptozotocin (STZ) (50 mg/kg i.p. on each of five consecutive days). Fourteen days after the last dose of STZ, blood glucose was measured to verify that the animals were diabetic, and the mice were divided into two groups of 5 animals each, one group receiving Compound AH (250 mg/kg) daily by oral gavage, and the other receiving vehicle (0.75% hydroxypropylmethylcellulose, a suspending agent, in water). […] Blood samples were taken periodically for determination of blood glucose concentrations, and body weights were also recorded.
Body weights and blood glucose, triglyceride and cholesterol concentrations 14 weeks after the beginning of drug treatment are shown in Table 1.

[4] = test system: mice with lethal insulin-dependent diabetes; test: Survival of mice with lethal insulin-dependent diabetes (single dose streptozotocin); format: in vivo, Balb/C mice; details: 250 mg/kg/day oral gavage
Description: Female Balb/C mice (14 weeks old) were treated with a single dose of streptozotocin (175 mg/kg i.p.) to induce severe insulin-dependent diabetes. Seven days later, mice were divided into three treatment groups: Compound AH, pioglitazone, and vehicle. Mice were treated daily via oral gavage, and survival was monitored over time.

NOD mice = test: Incidence of spontaneous diabetes and mortality in NOD mice; format: in vivo; details: 200 mg/kg/day oral, seven months
Description: A substantial proportion of NOD (“non-obese diabetic”) mice develop insulin-dependent diabetes as a consequence of spontaneous autoimmune destruction of pancreatic islet cells. Two groups of 20 NOD mice (6 weeks old) were treated daily with either oral Vehicle (0.4 ml of 0.75% hydroxypropyl methylcellulose in water; HPMC) or Compound AH (200 mg/kg/day) suspended in HPMC. The incidence of mortality due to spontaneous development of severe insulin-dependent diabetes was monitored over a period of seven months. At the end of this time, 13/20 mice treated with vehicle had died of uncontrolled diabetes, whereas only 5/20 mice treated with Compound AH had died.

[5] = streptozotocin diabetic Balb/C mice, 250 mg/kg daily oral gavage, 14 weeks

| SMILES | cumulative mortality [1] | % Reduction vs Control [2] | Blood Glucose after 6 hours [2] | blood glucose concentrations ([3]; 250 mg/kg daily oral, after several weeks of treatment) | metabolic abnormalities associated with insulin-dependent diabetes ([3]; oral treatment, 250 mg/kg daily) | Body Weight [3, 5] | Cholesterol [3, 5] | Glucose [3, 5] | Triglycerides [3, 5] | body weights of survivors at 12 weeks [4] | Survivors (Survival at 12 weeks) ([4]; STZ 175 mg/kg i.p. Balb/C mice) | mortality due to spontaneous severe insulin-dependent diabetes (NOD mice) |
| --- | --- | --- | --- | --- | --- | --- | --- | --- | --- | --- | --- | --- |
| O=C(O)CCC(=O)c1ccc(OCc2ccccc2F)cc1 [Compound AA, 4-(4-(2-Fluorobenzyloxy)phenyl)-4-oxobutyric acid] | 5/20 | −18.5 ± 8.4% | 242 ± 25 mg/dL | – | – | – | – | – | – | – | – | – |
| O=C(O)CCC(=O)c1ccc(OCc2c(F)cccc2F)cc1 [Compound AH, 4-(4-(2,6-Difluorobenzyloxy)phenyl)-4-oxobutyric acid] | – | −24.9 ± 3.7% | 223 ± 11 mg/dL | began to decrease toward baseline | significant amelioration | 21.7 ± 0.8 g | 82 ± 2 mg/dL | 207 ± 12 mg/dL | 62 ± 7 mg/dL | recovered and were maintained in the normal range | 4/5 | 5/20 |
